Test [1] has as its system DU-145 cells. Put plainly: Cell cycle assay (flow cytometry, PI). The test is classed as cell-based, human. The conditions noted are these: 24 h, highest concentrations. On the procedure:
Cells were subjected to AQQ1 and DOXO treatments as previously described for apoptosis necrosis analysis. For cell cycle analysis, a cell population of 1 × 10^6 was collected, centrifuged, and the supernatant was removed. The resulting cellular pellet was re-suspended in 70% cold ethanol in PBS. Subsequently, the cells underwent a single PBS wash, followed by incubation in PBS containing […] PI (Sigma-Aldrich, St. Louis, MO, USA) and 2 mg/mL DNase-free RNase-A (Affymetrix, Inc., Santa Barbara, CA, USA) for 30 min at room temperature in a light-protected environment. Analysis was performed using the BD FACS Calibur Flow Cytometry System, and the BD CellQuest Pro Software software (version 5.1, Becton Dickinson, USA) was employed to determine cell cycle phase distributions in comparison to the control group.
(In general: Flow cytometry measures light scatter and fluorescence of single cells or particles in a stream.)

Test [2] concerns DU-145 cells. Put plainly: MTT assay. The test is classed as cell-based. To be noted: Homo sapiens, 24 h, mean ± SEM. The procedure:
(§1) For the MTT assay, DU-145, MDA-MB-231, HCT-116, and HUVEC cells (American Type Culture Collection) were seeded at a concentration of 1 × 10^4 cells per well in 96-well plates and allowed to incubate overnight, ensuring proper adherence. Subsequently, a series of concentrations for both AQQ1 and AQQ2 (ranging from 1 to 100 µM) were added to the culture medium with a final concentration of 1% DMSO, and cells were subjected to an additional 24 h incubation period. The control group only received 1% DMSO (Biomatik, Cambridge, ON, Canada). To establish a baseline for comparison, DOXO (Saba, İstanbul, Turkey), a known chemotherapeutic agent, was administered at equivalent concentrations. Following the incubation period, MTT (3-(4,5-dimethylthiazol-2-yl)-2,5-diphenyltetrazolium bromide) (Biomatik, Canada) assay was carried out to assess cell viability. Finally, the absorbance was quantified at 590 nm using a BioTek Epoc plate reader (Biotek, Winooski, VT, USA). The derived data were analysed using GraphPad Prism 8 software to calculate the inhibitory concentration 50 (IC50) values of the test compounds.
Background: Tetrazolium dyes change colour on reduction, which living cells bring about.

Another test deals with HCT-116 cells. Put plainly: MTT assay. The conditions noted are these: Homo sapiens, 24 h, mean ± SEM. It is filed as cell-based. On the procedure:
as §1

In the next test the test system is MDA-MB-231 cells. Put plainly: MTT assay. The conditions noted are these: Homo sapiens, 24 h, mean ± SEM. The test is classed as cell-based. The procedure:
as §1

In test [3] the test system is Human Umbilical Vein Endothelial Cells (HUVEC). Put plainly: MTT assay. The test is classed as cell-based. To be noted: 24 h, mean ± SEM. On the procedure:
as §1

This note sets out measurements from article PMC11200585, “Prospects for Prostate Cancer Chemotherapy: Cytotoxic Evaluation and Mechanistic Insights of Quinolinequinones with ADME/PK Profile” (Biomedicines, 2024).

Where a name gives a salt, the structure may show the parent alone.

As to `COc1cccc2c1C(=O)c1c(O)c3c(c(O)c1C2=O)C[C@@](O)(C(=O)CO)C[C@@H]3O[C@H]1C[C@H](N)[C@H](O)[C@H](C)O1` [DOXO, Doxorubicin HCl, reference compound], in the test on DU-145 cells [1], the “population of cells in the G0/G1 phase” value is on record as “showed a similar effect on DU-145 cells”. The half-maximal inhibitory concentration (IC50) with DU-145 cells [2] is less than 100 µM; in the test on HCT-116 cells, 24.4 ± 6.9 µM; in the test with MDA-MB-231 cells it was 59.1 ± 9.06 µM; in test [3], 57.5 ± 9.82 µM.

As a reminder, the IC50 is the concentration needed to halve the response being measured.
